Values quoted from earlier work as cited in patent US20260345619A1 (Principia Biopharma Inc., priority 2023, published 2026).

Legend:
other TEC family members = settings: preclinical assays; cited from earlier work
BTK = settings: preclinical assays; cited from earlier work

Compound: CC(C)(C=C(C#N)C(=O)N1CCC[C@@H](n2nc(-c3ccc(Oc4ccccc4)cc3F)c3c(N)ncnc32)C1)N1CCN(C2COC2)CC1 (mixture of isomers) [rilzabrutinib, (R)-2-[3-[4-amino-3-(2-fluoro-4-phenoxy-phenyl)pyrazolo[3,4-d]pyrimidin-1-yl]piperidine-1-carbonyl]-4-methyl-4-[4-(oxetan-3-yl)piperazin-1-yl]pent-2-enenitrile]
- binding to other TEC family members over time (other TEC family members): decayed rapidly over time
- binding to BTK over time (BTK): persisted
